{
  "source": "patent US9557319B2",
  "about": "“Cell-based arrays, methods of making, and methods of using” (University of Florida Research Foundation, Inc., priority 2010, dated 2017)",
  "key": {"CA2 CCSCs": {"system": "CA2 CCSCs", "experiment": "CA2 patient-derived CCSC proliferation on drug-eluting microarray", "format": "cell-based, human", "conditions": "for proliferation with increasing drug exposure: CA2 cells, single drug; for Emax / drug sensitivity (1/D50): non-proliferation", "procedure": "ALDH^high spheres were generated from tumor cells obtained from patients with colon cancer. Isolated cells were cultured in serum-free media as previously described^14 (reference 14 is hereby incorporated by reference herein with respect to methods for culturing cells in serum-free media). Using these cultures, adherent cell growth was established with 0.1% gelatin (Millipore) coatings on tissue culture plates (TPP, Switzerland) and the cells were serially propagated. For CA1 and CA2 cells, 25,000 cells were tested per array. Cells were seeded in PBS with 0.1% gelatin and treated identically to the microarrays with HCT116.\n(§1) Camptothecin-loaded microarrays were stained with Annexin V (BD Pharminigen), fixed in 4% paraformaldehyde, and placed in PBS with Hoechst dye 34580 (Invitrogen, USA) for 30 min. Azide-loaded microarrays were fixed with 4% paraformaldehyde and incubated with PBS containing Hoechst 34580 dye. Finally, nutlin-3a-loaded microarrays were fixed with 4% paraformaldehyde, stained with BrdU (BD Bioscience, San Jose, Calif.), and incubated in PBS containing Hoechst 34580 dye. All arrays were mounted with Fluoro-Gel (Electron Microscope Sciences, Hatfield, Pa.) and imaged using an Axiovert 200M microscope (Carl Zeiss, Oberkochen, Germany). Analysis was performed with Axiovision (Carl Zeiss, Oberkochen, Germany) by quantifying, in each drug-eluting island, the area of fluorescence and reported as relative fluorescence intensity (RFI).\n(§2) Proliferation values were normalized to control (0 μM drug). Values for concentration-response curves were transformed to non-proliferation by subtracting the normalized value from 100%. Curve fitting analysis was performed to obtain Emax and D50 values using the equation E=E0+(Emax×D)/(D+D50) where E is the effect (either non-proliferation or apoptosis), E0 is the initial value, Emax is the maximum effect, D is the dose, and D50 is the dose at which a 50% maximum effect (Emax) is observed^34. Drug sensitivity values were obtained by taking the inverse of the D50 and multiplying by 100. Those values marked with “#” indicate that the r^2 value of the curve-fit was below 0.65. N/A values are present where negative parameters were obtained."}, "HCT116 cells [1]": {"system": "HCT116 cells", "experiment": "Apoptosis of HCT116 cells incubated with soluble drugs in 96-well plates", "format": "cell-based, human", "conditions": "soluble drug, 24 h", "procedure": "FIGS. 12A-12D are a series of graphs illustrating apoptosis and proliferation dose-response curves from HCT116 cells incubated with soluble drugs. FIG. 12A illustrates the percent of apoptotic HCT116 cells incubated 24 h with soluble nutlin-3a. […] Significant differences were determined by ANOVA, {F(5,282)=19.694, p<0.05}, followed by Tukey's post-hoc analysis. FIG. 12C illustrates the percent of non-proliferating HCT116 cells incubated 24 h with soluble nutlin-3a. Significant differences were determined by ANOVA, {F(4,226)=12.643, p<0.05}, followed by Tukey's post-hoc analysis. […] Significant differences were determined by ANOVA, {F(5,252)=102.485, p<0.05}, followed by Tukey's post-hoc analysis. (*: p<0.05 compared to all other conditions, #:p<0.05 from all conditions marked *).\nResults were corroborated using soluble drugs in 96-well plates (FIGS. 12A-D)."}, "[2]": {"experiment": "Loading efficiency of small molecules in microarrayed EVA films", "format": "physicochemical", "procedure": "To embed molecules into the polymer matrix, they were first dissolved in an appropriate solvent, depending on their respective hydrophobicity. A stock solution of azide (99%, Acros), a hydrophilic molecule, was dissolved in dH2O whereas Nutlin-3a (EMD Chemicals, Gibbstown, N.J.) and camptothecin (Sigma), both hydrophobic molecules, were dissolved in DMSO. Dissolved drugs were then added to 5% EVA at a 1:10 ratio of solvent:EVA. Prior to printing, polymer mixtures were vortexed for 30 s and then homogenized for 1 min before being loaded onto the source plate of the robotic mini-arrayer.\nTo determine the loading efficiency of factors, polymer formulations were made as described above. Films derived from 100 μl EVA loaded with factors were then made on glass coverslips and allowed to dry overnight under vacuum. Films were removed from the glass substrates and weighed. Films were washed briefly with PBS before being placed in 1 ml toluene to dissolve the polymer. Samples were then analyzed using a Nanodrop-ND-1000 spectrophotometer. Standard curves were generated for each factor, and loading efficiency was calculated as the percent of drug embedded in the polymer compared to the theoretical drug concentration."}, "HCT116 cells [3]": {"system": "HCT116 cells", "experiment": "HCT116 apoptosis (annexin V) on drug-eluting cellular microarray", "format": "cell-based, human", "conditions": "for drug sensitivity (1/D50) / Emax: apoptosis; for Emax: Homo sapiens, HCT-116, Camptothecin dose response", "from_the_text": "Glass coverslips were cleaned in an oxygen plasma etcher (Terra Universal, Fullerton, Calif.). Arrays of isolated spots of (3-Aminopropyl) trimethoxysilane (NH2-terminated silane) (Sigma-Aldrich, St. Louis, Mo.) were robotically printed on clean coverslips using a Calligrapher Miniarrayer printer (Bio-Rad, Hercules, Calif.) with 1500 μm center to center distances and a pin diameter of 400 μm. The silane printed coverslips were then coated with 175 Å of titanium (Ti; 99.995% pure) and 225 Å of gold (Au; 99.999% pure) (Williams Advanced Materials, Buffalo, N.Y.). Following coating, gold-coated arrays were sonicated to remove gold from the amine spots, exposing NH2-terminated silane islands. The coverslips were incubated with 0.1 M, methyl-terminated alkanethiol (CH3(CH2)11SH) (Sigma) for 30 min. Substrates were incubated in 10% Pluronic® F-127 (BASF Corporation, USA) for 3 h and 1% heat-denatured BSA for 30 min to create a non-fouling surface around the adhesive amine islands. Three layers of the drug-loaded ethylene vinyl acetate (EVA) polymers were printed over the amine islands and placed in a desiccator between each successive layer. Poly-d-lysine (0.1%) was over-spotted onto the EVA films to promote cell attachment. […] Schematic diagrams of the arrays are illustrated in FIGS. 6A and 6B.\nHCT116 (p53+/+, ATCC, Manassas, Va.) human colon cancer cells were maintained in McCoy's 5a Medium supplemented with 10% fetal bovine serum (Thermo Scientific, Waltham, Mass.), 1% penicillin G and 1% streptomycin (Thermo Scientific). The cells were cultured at 37° C. in a humidified incubator containing 5% CO2. Following microarray fabrication, 100,000 HCT116 cells were seeded over each array in 3 ml serum-free media and allowed to incubate on a rocking plate at room temperature until cell attachment to the EVA islands occurred, with minimal attachment to background, typically 10-15 min. Microarrays were gently washed in PBS, placed in a 35 mm petri dish with complete media, and placed in an incubator for 24-72 h.\nas §1, §2\nHyperbolic curve fits were generated for the dose responses from a first drug in the presence of a fixed amount of a second drug for each combination (Tables 2 and 3, below). […]"}, "[4]": {"conditions": "Nutlin dose response, 2nd drug CPT 0 μM, CA2"}, "[5]": {"conditions": "Nutlin dose response, 2nd drug CPT 1 μM, CA2"}, "[6]": {"conditions": "Nutlin dose response, 2nd drug CPT 10 μM, CA2"}, "[7]": {"conditions": "Nutlin dose response, 2nd drug CPT 50 μM, CA2"}},
  "note": "Where two headings read alike, the source gives them in different places. Marks after values point to notes of the source that are not given here.",
  "data": [
    {"smiles": "COc1ccc(C2=N[C@@H](c3ccc(Cl)cc3)[C@@H](c3ccc(Cl)cc3)N2C(=O)N2CCNC(=O)C2)c(OC(C)C)c1", "note": "[Nutlin-3a]", "values": [
      {"measurement": "decrease in Emax of the concentration response curve to nutlin-3a", "setting": "CA2 CCSCs; 50 μM camptothecin present vs nutlin-3a alone, CA2, not significant (p=0.097)", "value": 53, "unit": "%"},
      {"measurement": "proliferation with increasing drug exposure", "setting": "CA2 CCSCs", "value": "decreasing proliferation"},
      {"measurement": "Emax", "setting": "CA2 CCSCs; [4]", "value": "73.3 +/− 9.3*"},
      {"measurement": "drug sensitivity (1/D50)", "setting": "CA2 CCSCs; [4]", "value": "171 +/− 49 ^"},
      {"measurement": "Emax", "setting": "CA2 CCSCs; [5]", "value": "43.8 +/− 11"},
      {"measurement": "drug sensitivity (1/D50)", "setting": "CA2 CCSCs; [5]", "value": "189 +/− 328 ^"},
      {"measurement": "Emax", "setting": "CA2 CCSCs; [6]", "value": "57.0 +/− 39"},
      {"measurement": "drug sensitivity (1/D50)", "setting": "CA2 CCSCs; [6]", "value": "0.95 +/− 4.6^#"},
      {"measurement": "Emax", "setting": "CA2 CCSCs; [7]", "value": "34.1 +/− 9.3*"},
      {"measurement": "drug sensitivity (1/D50)", "setting": "CA2 CCSCs; [7]", "value": "303 +/− 260 ^"},
      {"measurement": "effect on inducing apoptosis of HCT116 cells", "setting": "HCT116 cells [1]", "value": "no effect"},
      {"measurement": "Loading efficiency (%)", "setting": "[2]", "value": "81 +/− 7%"},
      {"measurement": "drug sensitivity (1/D50)", "setting": "HCT116 cells [3]; Nutlin dose response, 2nd drug CPT 10 μM", "value": "2.48 +/− 0.83"},
      {"measurement": "drug sensitivity (1/D50)", "setting": "HCT116 cells [3]; Nutlin dose response, 2nd drug CPT 50 μM", "value": "143 +/− 98"},
      {"measurement": "effect on proportion of HCT116 cells that underwent apoptosis", "setting": "HCT116 cells [3]; administered alone, microarray", "value": "no effect"},
      {"measurement": "proportion of HCT116 cells that underwent apoptosis", "setting": "HCT116 cells [3]; nutlin-3a alone, 125 μM loading", "value": 5.6, "unit": "%"}
    ]},
    {"smiles": "CC[C@@]1(O)C(=O)OCc2c1cc1n(c2=O)Cc2cc3ccccc3nc2-1", "note": "[Camptothecin]", "values": [
      {"measurement": "proliferation with increasing drug exposure", "setting": "CA2 CCSCs", "value": "decreasing proliferation"},
      {"measurement": "drug sensitivity (1/D50)", "setting": "CA2 CCSCs; Camptothecin dose response, 2nd drug NUT 0 μM, CA2", "value": "133 +/− 5.3* ^"},
      {"measurement": "drug sensitivity (1/D50)", "setting": "CA2 CCSCs; Camptothecin dose response, 2nd drug NUT 1 μM, CA2", "value": "1.60 +/− 7.9* ^"},
      {"measurement": "drug sensitivity (1/D50)", "setting": "CA2 CCSCs; Camptothecin dose response, 2nd drug NUT 125 μM, CA2", "value": "0.00 +/− 1.01^#"},
      {"measurement": "Emax", "setting": "CA2 CCSCs; Homo sapiens, Camptothecin dose response, 2nd drug NUT 0 μM, CA2, read-out: Emax", "value": 46.6, "unit": "%"},
      {"measurement": "Emax", "setting": "CA2 CCSCs; Homo sapiens, Camptothecin dose response, 2nd drug NUT 1 μM, CA2, read-out: Emax", "value": 52.3, "unit": "%"},
      {"measurement": "Emax", "setting": "CA2 CCSCs; Homo sapiens, Camptothecin dose response, 2nd drug NUT 25 μM, CA2, read-out: Emax", "value": 43.9, "unit": "%"},
      {"measurement": "effect on inducing apoptosis of HCT116 cells", "setting": "HCT116 cells [1]", "value": "dose-dependent effect"},
      {"measurement": "Loading efficiency (%)", "setting": "[2]", "value": "92 +/− 3%"},
      {"measurement": "decrease in the Emax of the camptothecin concentration response curve", "setting": "HCT116 cells [3]; 125 μM nutlin-3a compared to 0 μM nutlin-3a, HCT116 apoptosis", "value": 65, "unit": "%"},
      {"measurement": "proportion of HCT116 cells undergoing apoptosis on single-drug microarray", "setting": "HCT116 cells [3]; 72 h incubation", "value": "greater with increasing concentrations"},
      {"measurement": "drug sensitivity (1/D50)", "setting": "HCT116 cells [3]; Camptothecin dose response, 2nd drug NUT 0 μM", "value": "2.53 +/− 1.1"},
      {"measurement": "drug sensitivity (1/D50)", "setting": "HCT116 cells [3]; Camptothecin dose response, 2nd drug NUT 1 μM", "value": "83.3 +/− 76"},
      {"measurement": "drug sensitivity (1/D50)", "setting": "HCT116 cells [3]; Camptothecin dose response, 2nd drug NUT 25 μM", "value": "15.9 +/− 2.8"},
      {"measurement": "Emax", "setting": "HCT116 cells [3]; 2nd drug NUT 0 μM", "value": 21.6, "unit": "%"},
      {"measurement": "Emax", "setting": "HCT116 cells [3]; 2nd drug NUT 1 μM", "value": 12.8, "unit": "%"},
      {"measurement": "Emax", "setting": "HCT116 cells [3]; 2nd drug NUT 25 μM", "value": 9.31, "unit": "%"},
      {"measurement": "Emax", "setting": "HCT116 cells [3]; 2nd drug NUT 125 μM", "value": 7.46, "unit": "%"}
    ]}
  ]
}
